Laboratory results: patent publication US11358931B2, “Selective androgen receptor modulators (SARMs) and uses thereof” (priority 2007, dated 2022)
Like-named read-outs stand apart in the source and are kept apart here.

Assay: Pharmacokinetics in Sprague Dawley rats, repeat oral administration for 15 days
Format: in vivo, rat
Conditions: for AUC(0-inf) / Cmax / Tmax / half-life / AUC: Sprague-Dawley, rat, plasma, po, SD rats; for AUC: read-out: AUC24
Description: The pharmacokinetics of Compound 102 following repeat oral administration for 15 days was evaluated in Sprague-Dawley rats. A total of 30 rats (15 males and 15 females) were divided into three dose groups (5 males/5 females). Compound 102 was suspended in a vehicle of 2% […]: 0.5% carboxymethyl cellulose (high viscosity) (50:50, v/v) at concentrations of 0.25, 0.75 and 2.5 mg/mL and animals were dosed via oral gavage at 1, 3 and 10 mg/kg once daily for 15 days. Tap water and a diet of rodent chow were provided to the animals ad libitum.
Blood samples were collected on Day 1 and Day 15. Approximately 0.25 mL of blood was collected from each animal via jugular cannula on Day 1 and from tail vein on Day 15. Blood samples were taken 1, 2, 4, 8, 12 and 24 hr postdose. Each blood sample was collected into tubes containing lithium heparin and kept on wet ice pending centrifugation (max 2 hrs). Samples were centrifuged under refrigeration (2°−8° C. at 3000 g) for 10 minutes. Plasma was transferred into a pre-labeled tube (approximately 125 μL) placed on dry ice and stored frozen at −70° C. until analysis.
50 μL of plasma was extracted with 250 μL of acetonitrile and the plasma concentration of Compound 102 was determined by an LC-MS/MS method. The plasma concentration time data were analyzed by a non-compartmental pharmacokinetic method using WinNonlin. The results for pharmacokinetics (Mean±SD, n=5) is shown in Table 3 (Day 1) and Table 4 (Day 15).

[1] = female, 1 mg/kg, oral gavage once daily, Day 15, 1 mg/kg, Female
[2] = female, 1 mg/kg, oral gavage, Day 1, 1 mg/kg, Female
[3] = female, 3 mg/kg, oral gavage once daily, Day 15, 3 mg/kg, Female, n = 3
[4] = female, 3 mg/kg, oral gavage, Day 1, 3 mg/kg, Female
[5] = female, 10 mg/kg, oral gavage once daily, Day 15, 10 mg/kg, Female, n = 4
[6] = female, 10 mg/kg, oral gavage, Day 1, 10 mg/kg, Female
[7] = male, 1 mg/kg, oral gavage once daily, Day 15, 1 mg/kg, Male, n = 4
[8] = male, 1 mg/kg, oral gavage, Day 1, 1 mg/kg, Male
[9] = male, 3 mg/kg, oral gavage once daily, Day 15, 3 mg/kg, Male
[10] = male, 3 mg/kg, oral gavage, Day 1, 3 mg/kg, Male
[11] = male, 10 mg/kg, oral gavage once daily, Day 15, 10 mg/kg, Male, n = 2
[12] = male, 10 mg/kg, oral gavage, Day 1, 10 mg/kg, Male

Q: Which “dose dependence of systemic exposure” value (1, 3 and 10 mg/kg dose levels) does the source give for `N#Cc1ccc(N2CCC[C@@H]2[C@@H](O)C(F)(F)F)cc1C(F)(F)F` [Compound 102, R,R-4-(2-(1-Hydroxyl-2,2,2-trifluoroethyl)-pyrrolidinyl)-2-trifluoromethyl-benzonitrile] here?
A: The value was “dose proportional increase of systemic exposure”.

Q: And the “sex difference of systemic exposure” value (Day 1 and Day 15)?
A: The value was “Female rats showed higher systemic exposure than male rats”.

Q: And the AUC(0-inf) [1]?
A: Its AUC(0-inf) is 443 ng·h/mL.

Q: What about the Cmax [1] of the same molecule?
A: Its Cmax is 45 ng/mL.

Q: And the Tmax [1]?
A: The Tmax was 1.8 h.

Q: What about the half-life [1] of the same molecule?
A: Its half-life is 4.6 h.

Q: And the AUC [1]?
A: Its AUC is 428 ng·h/mL.

Q: And the AUC(0-inf) [2]?
A: Its AUC(0-inf) is 436 ng·h/mL.

Q: And the Cmax [2]?
A: Its Cmax is 41 ng/mL.

Q: And the Tmax [2]?
A: The Tmax was 1.4 h.

Q: And the half-life [2]?
A: The half-life was 5.4 h.

Q: And the AUC [2]?
A: Its AUC is 413 ng·h/mL.

Q: And the AUC(0-inf) [3]?
A: Its AUC(0-inf) is 1160 ng·h/mL.

Q: And the Cmax [3]?
A: The Cmax was 139 ng/mL.

Q: What about the Tmax [3] of the same molecule?
A: The Tmax was 1.8 h.

Q: What about the half-life [3] of the same molecule?
A: Its half-life is 3.7 h.

Q: And the AUC [3]?
A: Its AUC is 1000 ng·h/mL.

Q: And the AUC(0-inf) [4]?
A: Its AUC(0-inf) is 1260 ng·h/mL.

Q: What about the Cmax [4] of the same molecule?
A: The Cmax was 129 ng/mL.

Q: What about the Tmax [4] of the same molecule?
A: Its Tmax is 2.6 h.

Q: And the half-life [4]?
A: The half-life was 4.8 h.

Q: And the AUC [4]?
A: The AUC was 1210 ng·h/mL.

Q: What about the AUC(0-inf) [5] of the same molecule?
A: The AUC(0-inf) was 4540 ng·h/mL.

Q: And the Cmax [5]?
A: The Cmax was 389 ng/mL.

Q: What about the Tmax [5] of the same molecule?
A: Its Tmax is 2 h.

Q: What about the half-life [5] of the same molecule?
A: Its half-life is 5.4 h.

Q: And the AUC [5]?
A: The AUC was 4280 ng·h/mL.

Q: And the AUC(0-inf) [6]?
A: The AUC(0-inf) was 4210 ng·h/mL.

Q: And the Cmax [6]?
A: The Cmax was 366 ng/mL.

Q: And the Tmax [6]?
A: Its Tmax is 1.4 h.

Q: And the half-life [6]?
A: The half-life was 5.6 h.

Q: What about the AUC [6] of the same molecule?
A: Its AUC is 3960 ng·h/mL.

Q: And the AUC(0-inf) [7]?
A: The AUC(0-inf) was 297 ng·h/mL.

Q: And the Cmax [7]?
A: The Cmax was 52 ng/mL.

Q: What about the Tmax [7] of the same molecule?
A: The Tmax was 1.3 h.

Q: And the half-life [7]?
A: Its half-life is 4.6 h.

Q: What about the AUC [7] of the same molecule?
A: Its AUC is 288 ng·h/mL.

Q: And the AUC(0-inf) [8]?
A: The AUC(0-inf) was 1110 ng·h/mL.

Q: And the Cmax [8]?
A: The Cmax was 14 ng/mL.

Q: And the Tmax [8]?
A: The Tmax was 1.2 h.

Q: What about the half-life [8] of the same molecule?
A: The half-life was 5.2 h.

Q: And the AUC [8]?
A: The AUC was 104 ng·h/mL.

Q: What about the AUC(0-inf) [9] of the same molecule?
A: The AUC(0-inf) was 893 ng·h/mL.

Q: What about the Cmax [9] of the same molecule?
A: The Cmax was 133 ng/mL.

Q: And the Tmax [9]?
A: Its Tmax is 1.2 h.

Q: And the half-life [9]?
A: The half-life was 4.1 h.

Q: What about the AUC [9] of the same molecule?
A: Its AUC is 876 ng·h/mL.

Q: And the AUC(0-inf) [10]?
A: Its AUC(0-inf) is 341 ng·h/mL.

Q: And the Cmax [10]?
A: The Cmax was 51 ng/mL.

Q: And the Tmax [10]?
A: The Tmax was 1.2 h.

Q: What about the half-life [10] of the same molecule?
A: The half-life was 4.6 h.

Q: What about the AUC [10] of the same molecule?
A: The AUC was 318 ng·h/mL.

Q: And the AUC(0-inf) [11]?
A: Its AUC(0-inf) is 2670 ng·h/mL.

Q: What about the Cmax [11] of the same molecule?
A: The Cmax was 345 ng/mL.

Q: What about the Tmax [11] of the same molecule?
A: Its Tmax is 1.5 h.

Q: What about the half-life [11] of the same molecule?
A: Its half-life is 3.9 h.

Q: And the AUC [11]?
A: The AUC was 2620 ng·h/mL.

Q: And the AUC(0-inf) [12]?
A: Its AUC(0-inf) is 1300 ng·h/mL.

Q: What about the Cmax [12] of the same molecule?
A: The Cmax was 176 ng/mL.

Q: What about the Tmax [12] of the same molecule?
A: Its Tmax is 1.2 h.

Q: What about the half-life [12] of the same molecule?
A: Its half-life is 3.5 h.

Q: And the AUC [12]?
A: Its AUC is 1290 ng·h/mL.
